{"source": "PubChem BioAssay (NCI)", "experiment_in_all_cases": "NCI anticancer screen, dose series, 48 h", "key": {"DLD-1 colon": {"test_system": "DLD-1 colon"}, "M19-MEL melanoma": {"test_system": "M19-MEL melanoma"}, "HOP-18 NSCLC": {"test_system": "HOP-18 NSCLC"}, "DMS 273 small cell lung": {"test_system": "DMS 273 small cell lung"}, "KM20L2 colon": {"test_system": "KM20L2 colon"}, "LXFL 529 NSCLC": {"test_system": "LXFL 529 NSCLC"}, "RPMI-8226 leukemia": {"test_system": "RPMI-8226 leukemia"}, "SN12C renal": {"test_system": "SN12C renal"}, "DMS 114 small cell lung": {"test_system": "DMS 114 small cell lung"}, "RXF-631 renal": {"test_system": "RXF-631 renal"}, "SF-539 CNS": {"test_system": "SF-539 CNS"}, "ACHN renal": {"test_system": "ACHN renal"}, "XF 498 CNS": {"test_system": "XF 498 CNS"}, "SNB-78 CNS": {"test_system": "SNB-78 CNS"}}, "note": "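Tested at 5 concentrations; 48 h exposure; 96-well plates; endpoints linearly interpolated, else capped at highest concentration. TGI: concentration producing complete growth inhibition.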", "data": [{"smiles": "CCOC(=O)NC(=O)c1cn(CCOC(=O)CCCCCCCCC(=O)OCCn2cc(C(=O)NC(=O)OCC)c(=O)[nH]c2=O)c(=O)[nH]c1=O", "values": [{"measurement": "TGI", "setting": "DLD-1 colon", "result": "> 100", "unit": "µM"}, {"measurement": "TGI", "setting": "M19-MEL melanoma", "result": "> 100", "unit": "µM"}, {"measurement": "TGI", "setting": "HOP-18 NSCLC", "result": "> 100", "unit": "µM"}, {"measurement": "TGI", "setting": "DMS 273 small cell lung", "result": "> 100", "unit": "µM"}, {"measurement": "TGI", "setting": "KM20L2 colon", "result": "> 100", "unit": "µM"}, {"measurement": "TGI", "setting": "LXFL 529 NSCLC", "result": "> 100", "unit": "µM"}, {"measurement": "TGI", "setting": "RPMI-8226 leukemia", "result": "> 100", "unit": "µM"}, {"measurement": "TGI", "setting": "SN12C renal", "result": "> 100", "unit": "µM"}, {"measurement": "TGI", "setting": "DMS 114 small cell lung", "result": "> 100", "unit": "µM"}, {"measurement": "TGI", "setting": "RXF-631 renal", "result": "> 100", "unit": "µM"}, {"measurement": "TGI", "setting": "SF-539 CNS", "result": "> 100", "unit": "µM"}, {"measurement": "TGI", "setting": "ACHN renal", "result": "> 100", "unit": "µM"}, {"measurement": "TGI", "setting": "XF 498 CNS", "result": "> 100", "unit": "µM"}, {"measurement": "TGI", "setting": "SNB-78 CNS", "result": "> 100", "unit": "µM"}]}, {"smiles": "Nc1ccnc(=O)[nH]1", "values": [{"measurement": "TGI", "setting": "DLD-1 colon", "result": "> 100", "unit": "µM"}, {"measurement": "TGI", "setting": "M19-MEL melanoma", "result": "> 100", "unit": "µM"}, {"measurement": "TGI", "setting": "HOP-18 NSCLC", "result": "> 100", "unit": "µM"}, {"measurement": "TGI", "setting": "DMS 273 small cell lung", "result": "> 100", "unit": "µM"}, {"measurement": "TGI", "setting": "KM20L2 colon", "result": "> 100", "unit": "µM"}, {"measurement": "TGI", "setting": "LXFL 529 NSCLC", "result": "> 100", "unit": "µM"}, {"measurement": "TGI", "setting": "RPMI-8226 leukemia", "result": "> 100", "unit": "µM"}, {"measurement": "TGI", "setting": "SN12C renal", "result": "> 100", "unit": "µM"}, {"measurement": "TGI", "setting": "DMS 114 small cell lung", "result": "> 100", "unit": "µM"}, {"measurement": "TGI", "setting": "RXF-631 renal", "result": "> 100", "unit": "µM"}, {"measurement": "TGI", "setting": "SF-539 CNS", "result": "> 100", "unit": "µM"}, {"measurement": "TGI", "setting": "ACHN renal", "result": "> 100", "unit": "µM"}, {"measurement": "TGI", "setting": "XF 498 CNS", "result": "> 100", "unit": "µM"}, {"measurement": "TGI", "setting": "SNB-78 CNS", "result": "> 100", "unit": "µM"}]}, {"smiles": "C[C@]12CCC(=O)C=C1CC[C@@H]1[C@@H]2CC[C@]2(C)C(=O)NC(=O)C[C@@H]12", "values": [{"measurement": "TGI", "setting": "DLD-1 colon", "result": "> 100", "unit": "µM"}, {"measurement": "TGI", "setting": "M19-MEL melanoma", "result": "> 100", "unit": "µM"}, {"measurement": "TGI", "setting": "HOP-18 NSCLC", "result": "> 100", "unit": "µM"}, {"measurement": "TGI", "setting": "DMS 273 small cell lung", "result": "> 100", "unit": "µM"}, {"measurement": "TGI", "setting": "KM20L2 colon", "result": "> 100", "unit": "µM"}, {"measurement": "TGI", "setting": "LXFL 529 NSCLC", "result": "> 100", "unit": "µM"}, {"measurement": "TGI", "setting": "RPMI-8226 leukemia", "result": "> 100", "unit": "µM"}, {"measurement": "TGI", "setting": "SN12C renal", "result": "> 100", "unit": "µM"}, {"measurement": "TGI", "setting": "DMS 114 small cell lung", "result": "> 100", "unit": "µM"}, {"measurement": "TGI", "setting": "RXF-631 renal", "result": "> 100", "unit": "µM"}, {"measurement": "TGI", "setting": "SF-539 CNS", "result": "> 100", "unit": "µM"}, {"measurement": "TGI", "setting": "ACHN renal", "result": "> 100", "unit": "µM"}, {"measurement": "TGI", "setting": "XF 498 CNS", "result": "> 100", "unit": "µM"}, {"measurement": "TGI", "setting": "SNB-78 CNS", "result": "> 100", "unit": "µM"}]}, {"smiles": "Cc1cccc(C)c1NC(=O)C(C#N)C1=C(Cl)C(=O)c2ccccc2C1=O", "note": "(stereo not given)", "values": [{"measurement": "TGI", "setting": "DLD-1 colon", "result": 30.1, "unit": "µM"}, {"measurement": "TGI", "setting": "M19-MEL melanoma", "result": 16.6, "unit": "µM"}, {"measurement": "TGI", "setting": "HOP-18 NSCLC", "result": 25.3, "unit": "µM"}, {"measurement": "TGI", "setting": "DMS 273 small cell lung", "result": "> 100", "unit": "µM"}, {"measurement": "TGI", "setting": "KM20L2 colon", "result": 50.7, "unit": "µM"}, {"measurement": "TGI", "setting": "LXFL 529 NSCLC", "result": 30, "unit": "µM"}, {"measurement": "TGI", "setting": "RPMI-8226 leukemia", "result": 53.6, "unit": "µM"}, {"measurement": "TGI", "setting": "SN12C renal", "result": 32, "unit": "µM"}, {"measurement": "TGI", "setting": "DMS 114 small cell lung", "result": 41.8, "unit": "µM"}, {"measurement": "TGI", "setting": "RXF-631 renal", "result": 43, "unit": "µM"}, {"measurement": "TGI", "setting": "SF-539 CNS", "result": 48.1, "unit": "µM"}, {"measurement": "TGI", "setting": "ACHN renal", "result": 28.8, "unit": "µM"}, {"measurement": "TGI", "setting": "XF 498 CNS", "result": 28.9, "unit": "µM"}, {"measurement": "TGI", "setting": "SNB-78 CNS", "result": 56.1, "unit": "µM"}]}, {"smiles": "Oc1ccccc1/C=C/c1csnn1", "values": [{"measurement": "TGI", "setting": "DLD-1 colon", "result": "> 100", "unit": "µM"}, {"measurement": "TGI", "setting": "M19-MEL melanoma", "result": "> 100", "unit": "µM"}, {"measurement": "TGI", "setting": "HOP-18 NSCLC", "result": "> 100", "unit": "µM"}, {"measurement": "TGI", "setting": "DMS 273 small cell lung", "result": "> 100", "unit": "µM"}, {"measurement": "TGI", "setting": "KM20L2 colon", "result": "> 100", "unit": "µM"}, {"measurement": "TGI", "setting": "LXFL 529 NSCLC", "result": "> 100", "unit": "µM"}, {"measurement": "TGI", "setting": "RPMI-8226 leukemia", "result": "> 100", "unit": "µM"}, {"measurement": "TGI", "setting": "SN12C renal", "result": "> 100", "unit": "µM"}, {"measurement": "TGI", "setting": "DMS 114 small cell lung", "result": "> 100", "unit": "µM"}, {"measurement": "TGI", "setting": "RXF-631 renal", "result": "> 100", "unit": "µM"}, {"measurement": "TGI", "setting": "SF-539 CNS", "result": "> 100", "unit": "µM"}, {"measurement": "TGI", "setting": "ACHN renal", "result": "> 100", "unit": "µM"}, {"measurement": "TGI", "setting": "XF 498 CNS", "result": "> 100", "unit": "µM"}, {"measurement": "TGI", "setting": "SNB-78 CNS", "result": "> 100", "unit": "µM"}]}]}
